The numbers were not newly measured in patent US8470984B2, “Process for the preparation of morpholinyl anthracycline derivatives” (Nerviano Medical Sciences S.R.L., priority 2010, dated 2013), which cites them from elsewhere.

For data set [1], the system named is tumor models.

For the compound `COc1cccc2c1C(=O)c1c(O)c3c(c(O)c1C2=O)C[C@@](O)(C(=O)CO)C[C@@H]3O[C@H]1C[C@H]2[C@H](O[C@@H]3[C@@H](OC)OCCN32)[C@H](C)O1` [compound 1, 3′-deamino-3″-4′-anhydro-[2″(S)-methoxy-3″(R)-hydroxy-4″-morpholinyl]doxorubicin], the “cytotoxicity in vitro relative to nemorubicin and doxorubicin” value was “more cytotoxic than nemorubicin and doxorubicin”. The “efficacy in in vivo tumor models” value in data set [1] is reported as “effective in in vivo tumor models”.
